Structures are written as SMILES.

In general, melting point refers to the temperature, or range, at which the solid turns liquid.

Series [1] concerns Na^+-dependent Cl^−/HCO3^− exchanger (NCBE). As to the kind of experiment: Inhibition of the Na+-dependent Cl−/HCO3− exchanger (NCBE) in human endothelial cells (pHi recovery, BCECF fluorescence, FLIPR). The format is cell-based. The settings on record: 10 μM compound; human endothelial cells (ECV-304); related to 100% and 0% pHi recovery controls. Summed up: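 ECV-304 cells loaded with 5 μM BCECF-AM in NH4Cl-containing saline, then placed in Na+/HCO3−-free buffer to acidify. pHi recovery started with Na+/HCO3− buffer (50 μM HOE 642) plus compound at various concentrations. Fluorescence kinetics over 2 min at 35 °C, normalised to 100% and 0% (HCO3−-free) controls.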

Take `N#CNS(=O)(=O)c1ccccc1-c1ccc(CN(Cc2ccccc2)C(=O)Cc2ccccc2C(F)(F)F)cc1` [Example 562, 4′-{[Benzyl-2-(2-trifluoromethylphenyl)acetylamino]methyl}biphenyl-2-sulfonylcyanamide]: the melting point was 90 °C (dec.). In series [1], the “Residual activity of the NCBE at 10 μM” value amounted to 33%.
For the compound `N#CNS(=O)(=O)c1ccccc1-c1ccc(CN(Cc2ccccc2)C(=O)c2ccccc2OC(F)(F)F)cc1` [Example 567, 4′-{[Benzyl-2-trifluoromethoxybenzoylamino]methyl}biphenyl-2-sulfonylcyanamide], the melting point is 160 °C (dec.). In series [1], the “Residual activity of the NCBE at 10 μM” value is given as 69%.
